Proliferation of bacteria data for two molecules are collected here from patent EP4652995A1, “ANTIBACTERIAL COMPOSITION, PHARMACEUTICAL AGENT, AND ANTIBACTERIAL METHOD” (priority 2023, dated 2024).

This test deals with vancomycin resistant E.faecium (VRE). Nature of the test: In vitro proliferation inhibition of E. faecium (OD600). The following applies: pH 7.5; 10 µg/mL V-161, 1 µg/mL niclosamide, alone or in combination; NaTY medium, 37°C, 13 hours; OD600 (Fig. 2). It counts as cell-based.

As for `Cc1ccc2[nH]c(-c3ccc(N(C)C)cc3)nc2c1` [Example V-161, N,N-dimethyl-4-(5-methyl-1H-benzo[d]imidazol-2-yl)aniline], the proliferation of bacteria entry is “not completely inhibited”.
With `O=C(Nc1ccc([N+](=O)[O-])cc1Cl)c1cc(Cl)ccc1O` [niclosamide, 5-chloro-2-hydroxy-N-(2-chloro-4-nitrophenyl)benzamide] the entry was “not completely inhibited”.
